Reference: article PMC10443802, “Targeting a xenobiotic transporter to ameliorate vincristine-induced sensory neuropathy” (JCI Insight, 2023)
Where “and” joins values, the source holds several entries; their conditions need not be identical. Equal values may be shown once. Read-outs that look alike come from different tables or passages of the source.

Experiments:
OATP1B-type transporters = conditions: cited from earlier work
mice [1] = conditions: cited from earlier work
mice [2] = conditions: for Protection against treatment-related mechanical allodynia by OATP1B2 deficiency: mouse, in vivo
hOATP1B3 [3] = molecular target: T1, hOATP1B3 (Homo sapiens, UniProt Q9NPD5); assay: Inhibition of vincristine uptake in HEK293 cells overexpressing hOATP1B3; conditions: inhibitor 15 min pre-treatment
T1 sequence (Q9NPD5 1-702): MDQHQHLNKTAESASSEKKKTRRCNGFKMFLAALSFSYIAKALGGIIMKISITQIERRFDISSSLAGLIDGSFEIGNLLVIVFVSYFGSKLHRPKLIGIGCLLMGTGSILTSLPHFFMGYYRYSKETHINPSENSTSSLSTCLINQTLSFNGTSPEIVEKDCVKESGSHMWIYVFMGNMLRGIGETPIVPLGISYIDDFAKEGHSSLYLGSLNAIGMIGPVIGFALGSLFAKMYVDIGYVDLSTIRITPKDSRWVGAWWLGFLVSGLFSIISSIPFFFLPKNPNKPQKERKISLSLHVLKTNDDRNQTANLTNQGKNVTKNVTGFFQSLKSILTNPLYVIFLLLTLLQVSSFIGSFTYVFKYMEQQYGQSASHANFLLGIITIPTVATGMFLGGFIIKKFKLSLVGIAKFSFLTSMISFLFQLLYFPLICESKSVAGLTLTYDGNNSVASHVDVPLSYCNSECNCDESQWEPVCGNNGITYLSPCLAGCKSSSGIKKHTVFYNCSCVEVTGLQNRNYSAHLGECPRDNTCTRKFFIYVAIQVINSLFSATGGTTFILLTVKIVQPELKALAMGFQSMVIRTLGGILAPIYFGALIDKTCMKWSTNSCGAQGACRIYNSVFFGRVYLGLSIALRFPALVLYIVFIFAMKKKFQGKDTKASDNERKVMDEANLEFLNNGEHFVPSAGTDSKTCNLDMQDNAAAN

hOATP1B1 [4] = molecular target: T2, hOATP1B1 (Homo sapiens, UniProt Q9Y6L6); assay: Inhibition of vincristine uptake in HEK293 cells overexpressing hOATP1B1; conditions: inhibitor 15 min pre-treatment
T2 sequence (Q9Y6L6 1-691): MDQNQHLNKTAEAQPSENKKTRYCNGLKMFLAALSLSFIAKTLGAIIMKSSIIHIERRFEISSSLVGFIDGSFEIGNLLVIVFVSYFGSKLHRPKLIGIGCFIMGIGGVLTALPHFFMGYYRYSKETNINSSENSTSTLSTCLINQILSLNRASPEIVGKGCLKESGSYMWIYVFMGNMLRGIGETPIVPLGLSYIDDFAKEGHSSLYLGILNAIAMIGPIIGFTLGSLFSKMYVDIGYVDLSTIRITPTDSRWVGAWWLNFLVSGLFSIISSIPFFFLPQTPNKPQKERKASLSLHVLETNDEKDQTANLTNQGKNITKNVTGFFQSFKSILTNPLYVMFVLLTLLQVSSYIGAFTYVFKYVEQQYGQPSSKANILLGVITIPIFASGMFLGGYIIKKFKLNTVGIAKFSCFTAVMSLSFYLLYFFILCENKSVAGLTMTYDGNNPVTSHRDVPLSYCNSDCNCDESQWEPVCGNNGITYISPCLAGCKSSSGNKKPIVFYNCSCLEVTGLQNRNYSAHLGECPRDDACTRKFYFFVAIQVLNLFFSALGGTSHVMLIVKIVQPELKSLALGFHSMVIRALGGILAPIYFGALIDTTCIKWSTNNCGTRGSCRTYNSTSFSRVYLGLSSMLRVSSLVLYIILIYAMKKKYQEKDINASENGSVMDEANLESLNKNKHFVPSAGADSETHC

mOATP1B2 [5] = molecular target: T3, mOATP1B2 (Mus musculus, UniProt Q9JJL3); assay: Inhibition of vincristine uptake in HEK293 cells overexpressing mOATP1B2; assay type: cell-based
T3 sequence (Q9JJL3 1-689): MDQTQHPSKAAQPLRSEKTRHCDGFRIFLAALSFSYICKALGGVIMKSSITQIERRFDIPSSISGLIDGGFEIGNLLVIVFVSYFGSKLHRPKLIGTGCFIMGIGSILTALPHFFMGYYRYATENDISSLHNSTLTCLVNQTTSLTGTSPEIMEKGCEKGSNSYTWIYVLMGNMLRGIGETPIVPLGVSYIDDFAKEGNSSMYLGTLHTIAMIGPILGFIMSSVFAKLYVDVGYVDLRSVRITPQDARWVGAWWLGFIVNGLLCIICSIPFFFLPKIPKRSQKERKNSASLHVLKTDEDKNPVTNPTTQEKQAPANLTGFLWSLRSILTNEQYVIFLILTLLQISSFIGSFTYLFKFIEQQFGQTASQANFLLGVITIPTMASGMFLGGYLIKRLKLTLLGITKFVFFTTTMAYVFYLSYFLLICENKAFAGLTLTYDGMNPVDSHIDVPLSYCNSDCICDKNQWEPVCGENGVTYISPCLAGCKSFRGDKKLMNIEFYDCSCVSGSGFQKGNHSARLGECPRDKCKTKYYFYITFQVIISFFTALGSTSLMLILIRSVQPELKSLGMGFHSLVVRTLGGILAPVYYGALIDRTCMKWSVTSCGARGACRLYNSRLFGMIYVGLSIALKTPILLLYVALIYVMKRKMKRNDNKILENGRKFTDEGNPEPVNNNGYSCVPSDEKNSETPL

mOATP1B2 [6] = molecular target: T3, mOATP1B2; assay: Inhibition of EβG uptake in HEK293 cells overexpressing mOATP1B2; assay type: cell-based
hOATP1B3 [7] = molecular target: T1, hOATP1B3; assay: Inhibition of EβG uptake in HEK293 cells overexpressing hOATP1B3; conditions: HEK293 hOATP1B3; inhibitor 10 μM, 15-min pre-incubation
OATP1B2 = assay: Plasma level and DRG/plasma ratio of α-tocopherol in mice (biomarker of OATP1B2 function); assay type: in vivo, mouse
hOATP1B1 [8] = molecular target: T2, hOATP1B1; assay: Inhibition of EβG uptake in HEK293 cells overexpressing hOATP1B1; conditions: inhibitor 10 μM, 15-min pre-incubation
[9] = mOATP1B2, in presence of alpha-tocopherol

OCCN(CCO)c1nc(N2CCCCC2)c2nc(N(CCO)CCO)nc(N3CCCCC3)c2n1 [Dipyridamole, dipyridamole]
Inhibitory potency against OATP1B-type transporters (OATP1B-type transporters): moderate inhibitory potency | Protection against VIPN (mice [1]): partially protected against VIPN in mice

CC(=O)O[C@@]12CO[C@@H]1C[C@H](O)[C@@]1(C)C(=O)[C@H](O)C3=C(C)[C@@H](OC(=O)[C@H](O)[C@@H](NC(=O)OC(C)(C)C)c4ccccc4)C[C@@](O)([C@@H](OC(=O)c4ccccc4)[C@H]21)C3(C)C [Docetaxel, docetaxel]
Protection against treatment-related mechanical allodynia by OATP1B2 deficiency (mice [2]; DBA/1LacJ): independently of OATP1B2

C=C1C[C@@H]2CC[C@@]34C[C@H]5O[C@H]6[C@@H](O3)[C@H]3O[C@H](CC[C@@H]3O[C@H]6[C@H]5O4)CC(=O)C[C@@H]3[C@@H](OC)[C@@H](C[C@H](O)CN)O[C@H]3C[C@H]3O[C@@H](CC[C@@H]1O2)C[C@@H](C)C3=C [Eribulin, eribulin]
Protection against treatment-related mechanical allodynia by OATP1B2 deficiency (mice [2]; DBA/1LacJ): independently of OATP1B2

C/C(=C\c1csc(C)n1)[C@@H]1C[C@@H]2O[C@]2(C)CCC[C@H](C)[C@H](O)[C@@H](C)C(=O)C(C)(C)[C@@H](O)CC(=O)N1 [Ixabepilone, ixabepilone]
Protection against treatment-related mechanical allodynia by OATP1B2 deficiency (mice [2]; DBA/1LacJ): independently of OATP1B2

CC(=O)O[C@H]1C(=O)[C@@]2(C)[C@H]([C@H](OC(=O)c3ccccc3)[C@]3(O)C[C@H](OC(=O)[C@H](O)[C@@H](NC(=O)c4ccccc4)c4ccccc4)C(C)=C1C3(C)C)[C@]1(OC(C)=O)CO[C@@H]1C[C@@H]2O [Paclitaxel, paclitaxel]
Protection against treatment-related mechanical allodynia by OATP1B2 deficiency (mice [2]): protection against treatment-related mechanical allodynia was only observed

CO[C@H]1/C=C/O[C@@]2(C)Oc3c(C)c(O)c4c(O)c(c(/C=N/N5CCN(C)CC5)c(O)c4c3C2=O)NC(=O)/C(C)=C\C=C\[C@H](C)[C@H](O)[C@@H](C)[C@@H](O)[C@@H](C)[C@H](OC(C)=O)[C@@H]1C [Rifampicin, rifampicin]
Vincristine uptake (% of vehicle) (hOATP1B3 [3]): 68.0365 % of vehicle and 67.1426 % of vehicle and 57.6334 % of vehicle and 46.0272 % of vehicle and 55.4053 % of vehicle and 65.8991 % of vehicle | Vincristine uptake (% of vehicle) (hOATP1B1 [4]): 68.5513 % of vehicle and 91.3571 % of vehicle and 64.0921 % of vehicle | Vincristine uptake (% of vehicle) (mOATP1B2 [5]; HEK293 mOATP1B2, inhibitor 15 min pre-treatment): 69.4167 % of vehicle and 71.9856 % of vehicle and 78.1737 % of vehicle and 74.3324 % of vehicle and 63.8503 % of vehicle and 67.3213 % of vehicle | Protective effect against VIPN (mechanical allodynia) (mice [2]; rifampin pretreatment 20 mg/kg, single vincristine 1 mg/kg, wild-type mice): could be replicated with pretreatment of orally administered rifampin | EβG uptake (% of vehicle) (mOATP1B2 [6]; HEK293 mOATP1B2, inhibitor 10 μM, 15-min pre-incubation): 9.089 % of vehicle and 9.168 % of vehicle and 8.011 % of vehicle | EβG uptake (% of vehicle) (hOATP1B3 [7]): 4.339 % of vehicle and 4.237 % of vehicle and 4.051 % of vehicle | Level of α-tocopherol (% of wild-type baseline), DRG/Plasma Ratio (OATP1B2; WT mice treated with the inhibitor, DRG/plasma ratio, listed as Rifampin): 27.9959% and 27.249% and 34.1971% | Level of α-tocopherol (% of wild-type baseline), Plasma (OATP1B2; WT mice treated with the inhibitor, plasma, listed as Rifampin): 236.636% and 352.754% and 217.386% | Level of α-tocopherol (% of wild-type baseline), relative DRG/plasma ratio (OATP1B2; WT mice, 2 hours after rifampin 20 mg/kg i.p.): 27.9959 % of wild-type baseline and 27.249 % of wild-type baseline and 34.1971 % of wild-type baseline | EβG uptake (% of vehicle) (hOATP1B1 [8]): 26.1825 % of vehicle and 31.1005 % of vehicle and 27.1566 % of vehicle

CCC1=C[C@@H]2CN(C1)Cc1c([nH]c3ccccc13)[C@@](C(=O)OC)(c1cc3c(cc1OC)N(C)[C@H]1[C@@](O)(C(=O)OC)[C@H](OC(C)=O)[C@]4(CC)C=CCN5CC[C@]31[C@@H]54)C2 [Vinorelbine, vinorelbine]
Protection against treatment-related mechanical allodynia by OATP1B2 deficiency (mice [2]; DBA/1LacJ): independently of OATP1B2

Cc1c(C)c2c(c(C)c1O)CC[C@@](C)(CCC[C@H](C)CCC[C@H](C)CCCC(C)C)O2 [alpha-tocopherol]
Vincristine uptake (% of vehicle) (mOATP1B2 [5]; [9]): 51.7599% and 63.6149% and 58.7604% | EβG uptake (% of vehicle) (mOATP1B2 [6]; [9]): 113.612% and 99.0126% and 119.375% and 118.704% and 95.6597% and 100.791%
